One test has as its target AChE from electric eel (Electrophorus electricus, UniProt O42275). Nature of the test: biochemical. The settings on record: read-out: % of inhibition at 25 μg/mL AChE.
The target of a further test is BChE from equine serum (Equus caballus, UniProt P81908). As to the kind of experiment: biochemical. Format: biochemical. To be noted: for inhibition at 25 µg/mL: read-out: % of inhibition at 25 μg/mL BChE; for BChE inhibition described in words: structure-activity discussion.
Sequence of BChE from equine serum (P81908 whole entry): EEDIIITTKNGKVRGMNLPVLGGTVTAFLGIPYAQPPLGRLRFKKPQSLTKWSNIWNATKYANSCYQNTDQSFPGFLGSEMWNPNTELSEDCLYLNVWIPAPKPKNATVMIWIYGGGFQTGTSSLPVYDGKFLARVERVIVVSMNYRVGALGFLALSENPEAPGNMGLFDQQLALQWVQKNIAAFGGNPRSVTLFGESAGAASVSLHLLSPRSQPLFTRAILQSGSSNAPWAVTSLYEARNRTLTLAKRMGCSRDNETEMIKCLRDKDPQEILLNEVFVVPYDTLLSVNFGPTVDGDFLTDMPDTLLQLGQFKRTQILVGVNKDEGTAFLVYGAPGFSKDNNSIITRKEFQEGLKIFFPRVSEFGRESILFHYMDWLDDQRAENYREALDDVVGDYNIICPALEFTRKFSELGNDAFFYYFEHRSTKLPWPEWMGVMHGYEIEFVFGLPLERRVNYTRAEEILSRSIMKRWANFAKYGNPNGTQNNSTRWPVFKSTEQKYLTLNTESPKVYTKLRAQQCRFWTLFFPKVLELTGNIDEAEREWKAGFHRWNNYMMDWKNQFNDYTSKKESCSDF
The target in the next test is BChE (Equus caballus, UniProt P81908). Nature of the test: Kinetic characterization of BChE inhibition (Lineweaver–Burk plots, secondary plots). It is filed as biochemical, equine. The settings on record: for Mode of BChE inhibition: Lineweaver–Burk plots; for Ki: estimated by secondary plots of Lineweaver–Burk plots, substrate BTCI. The protocol: […]. Five increasing concentrations of BTCI as a substrate in the presence of three different concentrations of compound were used in the kinetic measurement. The concentrations of the enzyme and DNTB used in the determination are 0.226 U/mL and 3 mM respectively. The inhibition constants (Ki) of the inhibitors were determined by the secondary plots which constructed using the slopes of the Lineweaver–Burk plots.
Sequence of BChE (P81908 whole entry): as above

Structures are written as SMILES. Read-outs that look alike come from different tables or passages of the source.

Sequence of AChE from electric eel (O42275 24-633): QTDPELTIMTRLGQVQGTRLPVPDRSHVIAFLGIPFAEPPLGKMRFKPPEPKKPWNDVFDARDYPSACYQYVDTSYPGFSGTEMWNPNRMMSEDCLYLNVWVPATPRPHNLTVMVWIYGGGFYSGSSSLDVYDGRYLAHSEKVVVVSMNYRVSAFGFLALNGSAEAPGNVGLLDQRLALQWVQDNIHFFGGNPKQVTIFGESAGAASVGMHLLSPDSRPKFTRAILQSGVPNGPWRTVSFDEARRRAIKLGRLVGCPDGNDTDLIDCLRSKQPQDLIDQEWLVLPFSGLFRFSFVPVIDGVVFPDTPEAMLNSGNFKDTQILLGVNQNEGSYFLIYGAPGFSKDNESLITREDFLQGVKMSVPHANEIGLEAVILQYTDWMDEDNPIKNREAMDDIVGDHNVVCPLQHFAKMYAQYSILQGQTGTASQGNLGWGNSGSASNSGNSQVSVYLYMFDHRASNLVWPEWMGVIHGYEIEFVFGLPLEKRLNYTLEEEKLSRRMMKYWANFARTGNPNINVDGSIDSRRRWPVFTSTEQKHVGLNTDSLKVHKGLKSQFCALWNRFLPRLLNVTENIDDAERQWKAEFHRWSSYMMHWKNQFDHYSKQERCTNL

For the compound `COc1cccc(CCc2cc(OC)cc(O)c2Cc2ccc(O)cc2)c1` [Compound 1, gymconopin D], the inhibition at 25 µg/mL worked out at 48.1 ± 6.3% on AChE from electric eel and 66.2 ± 3.4% on BChE from equine serum. Further, the Selectivity ratio at BChE from equine serum is recorded as more than 1.7. Also, the IC50 against BChE from equine serum (mean ± SD of three experiments) was 40.5 ± 5.6 µM.
As for `COc1cccc(CCc2cc(O)cc(OC)c2Cc2ccc(O)cc2)c1` [Compound 2, bulbocol], at AChE from electric eel, the inhibition at 25 µg/mL is 16.3 ± 3.8%. At BChE from equine serum, the Selectivity ratio is recorded as more than 2.1 and the inhibition at 25 µg/mL came to 67.7 ± 0.3%. At BChE from equine serum (mean ± SD of three experiments), this compound yielded an IC50 of 33.5 ± 3.7 µM.
For `COc1cc(O)cc(CCc2cccc(O)c2)c1Cc1ccc(O)cc1` [Compound 3, 3′,5-dihydroxy-2-(4-hydroxybenzyl)-3-methoxybibenzyl], the inhibition at 25 µg/mL is 5 ± 1.5% on AChE from electric eel and 51.3 ± 2% at BChE from equine serum. The compound further showed an IC50 against BChE from equine serum (mean ± SD of three experiments) of 80.3 ± 5.2 µM.
On to `COc1cc(O)c(Cc2ccc(O)cc2)c(CCc2cccc(O)c2)c1` [Compound 4, isoarundinin II], for which the values for the inhibition at 25 µg/mL on AChE from electric eel and on BChE from equine serum were 0.9 ± 0.8% and 39.3 ± 2.3%, respectively.
For the compound `COc1cc(CCc2cccc(O)c2)cc(O)c1Cc1ccc(O)cc1` [Compound 5, 3,3′-dihydroxy-4-(4-hydroxybenzyl)-5-methoxybibenzyl], the inhibition at 25 µg/mL at AChE from electric eel stood at 2.6 ± 2.8%; on BChE from equine serum, 22.6 ± 2.1%.
Regarding `COc1ccc2c(ccc3c(Cc4ccc(O)cc4)c(O)cc(OC)c32)c1O` [Compound 6, 1-(p-hydroxybenzyl)-4,7-dimethoxyphenanthrene-2,8-diol], at AChE from electric eel, the inhibition at 25 µg/mL was 20.4 ± 4.5%. Moreover, on BChE from equine serum, the Selectivity ratio is on record as more than 9.5 and the inhibition at 25 µg/mL is 85.2 ± 2.9%. Besides, the midpoint of inhibition at BChE from equine serum (mean ± SD of three experiments), the IC50, lay at 6.4 ± 0.2 µM. Also, on BChE, the “Mode of BChE inhibition” value was “mixed-type” and the inhibitory constant (Ki) is 14 µM.
As to `COc1c(Cc2ccc(O)cc2)c(O)cc2c1-c1ccc(O)cc1CC2` [Compound 7, 3-(4-hydroxybenzyl)-4-methoxy-9,10-dihydrophenanthrene-2,7-diol], the inhibition at 25 µg/mL was 9.6 ± 2.6% on AChE from electric eel and 65.7 ± 0.7% at BChE from equine serum. The Selectivity ratio on BChE from equine serum was more than 2.1. Further, on BChE from equine serum (mean ± SD of three experiments), half-maximal inhibition (IC50) was put at 34 ± 1.4 µM.
For `COc1c(O)cc2ccc3c(Cc4ccc(O)cc4)c(O)ccc3c2c1OC` [Compound 8, bleformin A], the inhibition at 25 µg/mL at AChE from electric eel turned out to be 18.5 ± 1.7%. Besides, at BChE from equine serum, the Selectivity ratio is recorded as more than 13.1 and the inhibition at 25 µg/mL came out at 70 ± 1%. Also, the IC50 against BChE from equine serum (mean ± SD of three experiments) worked out at 5.2 ± 0.4 µM. For the same compound, on BChE, the “Mode of BChE inhibition” value is “mixed-type” and the Ki is 4.7 µM.
Turning to `COc1cc(O)c2c(c1Cc1ccc(O)cc1)CCc1cc(O)ccc1-2` [Compound 9, shancidin], the inhibition at 25 µg/mL on AChE from electric eel is 15.2 ± 3.6%. Moreover, on BChE from equine serum, the Selectivity ratio is more than 4.3 and the inhibition at 25 µg/mL worked out at 72.8 ± 3.4%. Further, the midpoint of inhibition at BChE from equine serum (mean ± SD of three experiments), the IC50, lay at 16.7 ± 2 µM.
Take `COc1cc(O)c(Cc2ccc(O)cc2)c2ccc3cc(O)ccc3c12` [Compound 10, 1-[(4-hydroxyphenyl)methyl]-4-methoxy-2,7-phenanthrenediol]: on AChE from electric eel, the inhibition at 25 µg/mL was found to be 19.1 ± 3.8%. On BChE from equine serum, the Selectivity ratio is recorded as more than 34.7 and the inhibition at 25 µg/mL is 96.6 ± 1.2%. The same compound gave an IC50 against BChE from equine serum (mean ± SD of three experiments) of 2.1 ± 0.3 µM. For the same compound, at BChE, the “Mode of BChE inhibition” value was “non-competitive” and the Ki is 5.4 µM.
`COc1c(Cc2ccc(O)cc2)c(O)c(Cc2ccc(O)cc2)c2c1-c1ccc(O)cc1CC2` [Compound 11, 2,7-dihydroxy-1,3-bi(p-hydroxybenzyl)-4-methoxy-9,10-dihydrophenanthrene]: the inhibition at 25 µg/mL on AChE from electric eel turned out to be 20.1 ± 3.5%. Further, on BChE from equine serum, the Selectivity ratio was more than 1.2 and the inhibition at 25 µg/mL was determined as 53.1 ± 1.2%. This compound yielded an IC50 against BChE from equine serum (mean ± SD of three experiments) of 44.6 ± 4.1 µM.
In the case of `COc1cc(O)c(Cc2ccc(O)cc2)c2ccc3c(Cc4ccc(O)cc4)c(O)ccc3c12` [Compound 12, 1,8-bis(4-hydroxybenzyl)-4-methoxyphenanthrene-2,7-diol], on AChE from electric eel, the inhibition at 25 µg/mL came out at 16.1 ± 5%. In addition, on BChE from equine serum, the Selectivity ratio is more than 23.1 and the inhibition at 25 µg/mL worked out at 95.4 ± 0.3%. At BChE from equine serum (mean ± SD of three experiments), this compound had a concentration for half-maximal inhibition (IC50) of 2.3 ± 0.4 µM. On BChE, the “Mode of BChE inhibition” value was “non-competitive” and the Ki is 6.6 µM.
As for `COc1c(O)c(Cc2ccc(O)cc2)c2ccc3cc(O)ccc3c2c1OC` [Compound 13, bleformin B], the results for the inhibition at 25 µg/mL on AChE from electric eel and at BChE from equine serum were 9.9 ± 4.7% and 75.7 ± 1.1%, respectively. Moreover, at BChE from equine serum, the Selectivity ratio was more than 4.0. This compound showed an IC50 on BChE from equine serum (mean ± SD of three experiments) of 16.7 ± 2.4 µM.
For the compound `COc1cc(O)cc2c1-c1ccc(Oc3c(O)cc(OC)c4c3ccc3cc(O)ccc34)cc1CC2` [Compound 14, blestrin D], the inhibition at 25 µg/mL at AChE from electric eel came to 6.8 ± 1.6%; on BChE from equine serum (25 μg/mL final concentration, mean ± SD of three experiments) it was 69 ± 2.5%. Also, on BChE from equine serum, the Selectivity ratio is more than 6.8. On BChE from equine serum (mean ± SD of three experiments), this compound yielded an IC50 of 8.1 ± 0.5 µM. On BChE, the “Mode of BChE inhibition” value is “mixed-type”. Besides, the Ki on BChE was 10.9 µM.
Turning to `COc1cc(Oc2c(O)cc(OC)c3c2CCc2cc(O)ccc2-3)cc2c1-c1ccc(O)cc1CC2` [Compound 15, blestrin A], the inhibition at 25 µg/mL at AChE from electric eel is 8.4 ± 3.1%. Moreover, at BChE from equine serum, the Selectivity ratio is listed as more than 2.9 and the inhibition at 25 µg/mL turned out to be 64 ± 2.6%. Moreover, half-maximal inhibition at BChE from equine serum (mean ± SD of three experiments) (IC50) was put at 17.9 ± 4.7 µM.
The like results for `COc1cc(Oc2c(O)cc(OC)c3c2ccc2cc(O)ccc23)cc2c1-c1ccc(O)cc1CC2` [Compound 16, blestrin C] were, in that order, 4.9 ± 3.2%, more than 4.3, 64.3 ± 2.4% and 12.1 ± 3.4 µM.
As to `COc1cc(C2COc3cc(OC)c4c(c3C2O)CCc2cc(O)ccc2-4)ccc1O` (stereo not shown) [Compound 17, shanciol F], the values for the inhibition at 25 µg/mL at AChE from electric eel and on BChE from equine serum were 5.5 ± 1.8% and 21.8 ± 3.1%, respectively.
`COc1cc([C@@H]2Oc3cc4c(cc3[C@H]2CO)-c2c(cc(O)cc2OC)CC4)ccc1O` [Compound 18, bletilol D]: the inhibition at 25 µg/mL is 5.7 ± 2.8% at AChE from electric eel and 31.6 ± 2.8% on BChE from equine serum.
As to `COc1cc(C2Oc3cc4c(c(OC)c3C2CO)-c2ccc(O)cc2CC4)ccc1O` (stereo not shown) [Compound 19, 9-(4′-hydroxy-3′-methoxyphenyl)-10-(hydroxymethyl)-11-methoxy-5,6,9, 10-tetrahydrophenanthro[2,3-b] furan-3-ol], the inhibition at 25 µg/mL on AChE from electric eel came out at 3.3 ± 1.8%; on BChE from equine serum, 61.2 ± 1.3%. Also, the Selectivity ratio at BChE from equine serum is recorded as more than 1.7. Half-maximal inhibition against BChE from equine serum (mean ± SD of three experiments) (IC50) was put at 35.8 ± 9.2 µM.
On to `COc1cc([C@@H]2Oc3cc(OC)c4c(c3[C@H]2Cc2c(O)cc(OC)c3c2CCc2cc(O)ccc2-3)CCc2cc(O)ccc2-4)ccc1O` [Compound 20, Bletilol E], for which the inhibition at 25 µg/mL amounted to 5.1 ± 4% on AChE from electric eel and 8 ± 2.4% on BChE from equine serum. In addition, at BChE from equine serum, the “BChE inhibition described in words” value is reported as “weak inhibition potency”.
With `COc1cc(O)cc(/C=C\c2cccc(O)c2)c1` [Compound 21, pholidotol D], the inhibition at 25 µg/mL amounted to 5.2 ± 3.2% at AChE from electric eel and 29.1 ± 1.3% on BChE from equine serum.
Turning to `COc1cc(O)c(-c2c(O)cc(OC)c3c2CCc2cc(O)ccc2-3)c2c1-c1ccc(O)cc1CC2` [Compound 22, flavanthrin], the inhibition at 25 µg/mL at AChE from electric eel came to 13.3 ± 2.9%. Also, at BChE from equine serum, the Selectivity ratio is given as more than 1.2, the inhibition at 25 µg/mL is 56.7 ± 2% and the “BChE inhibition described in words” value is “moderate efficacy”. The midpoint of inhibition on BChE from equine serum (mean ± SD of three experiments), the IC50, lay at 42.2 ± 5.1 µM.
In the case of `COc1ccc2c3c1O[C@H]1C[C@@H](O)C=C[C@@]31CCN(C)C2` [Galantamine, reference compound], the inhibition at 25 µg/mL at BChE from equine serum was 64.2 ± 0.6%.

The values are drawn from paper PMC9372051, “Biological evaluation, molecular modeling and dynamics simulation of phenanthrenes isolated from Bletilla striata as butyrylcholinesterase inhibitors” (Scientific Reports, 2022).
